Read-outs that look alike come from different tables or passages of the source.
Key:
[1] = system: OT-1 CD8+ T cells with SIINFEKL-loaded MC38 tumor cells; assay: Murine cytotoxic T lymphocyte assay (IFN-γ, OT-1 CTL with MC38 tumor cells); format: cell-based, mouse; details: read-out: msCTL INFg IC50
Method in brief: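 IFN-γ was quantified by AlphaLISA in supernatants after 24 h co-culture at 37° C. Effectors were OT-1 CD8+ CTLs (5-day peptide/mIL2 expansion), exposed 1 h to DGK inhibitors before mixing 1:10 with MC38 tumor cells loaded 3 h with 1 μg/mL SIINFEKL peptide.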

[2] = molecular target: T1, human DGKα (Homo sapiens, UniProt P23743); assay: DGKα LIPGLO assay (extruded liposome substrate), in vitro DGK inhibition; format: biochemical; details: liposome (LIPGLO) assay; read-out: DGKa LIPGLO IC50
T1 construct: TVMV protease cleavage site (C); Hexa-His (C); made in house; host or cells: Sf9 insect cells (baculovirus, Bac-to-Bac)
T1 sequence (P23743 with tags, fused parts or gaps): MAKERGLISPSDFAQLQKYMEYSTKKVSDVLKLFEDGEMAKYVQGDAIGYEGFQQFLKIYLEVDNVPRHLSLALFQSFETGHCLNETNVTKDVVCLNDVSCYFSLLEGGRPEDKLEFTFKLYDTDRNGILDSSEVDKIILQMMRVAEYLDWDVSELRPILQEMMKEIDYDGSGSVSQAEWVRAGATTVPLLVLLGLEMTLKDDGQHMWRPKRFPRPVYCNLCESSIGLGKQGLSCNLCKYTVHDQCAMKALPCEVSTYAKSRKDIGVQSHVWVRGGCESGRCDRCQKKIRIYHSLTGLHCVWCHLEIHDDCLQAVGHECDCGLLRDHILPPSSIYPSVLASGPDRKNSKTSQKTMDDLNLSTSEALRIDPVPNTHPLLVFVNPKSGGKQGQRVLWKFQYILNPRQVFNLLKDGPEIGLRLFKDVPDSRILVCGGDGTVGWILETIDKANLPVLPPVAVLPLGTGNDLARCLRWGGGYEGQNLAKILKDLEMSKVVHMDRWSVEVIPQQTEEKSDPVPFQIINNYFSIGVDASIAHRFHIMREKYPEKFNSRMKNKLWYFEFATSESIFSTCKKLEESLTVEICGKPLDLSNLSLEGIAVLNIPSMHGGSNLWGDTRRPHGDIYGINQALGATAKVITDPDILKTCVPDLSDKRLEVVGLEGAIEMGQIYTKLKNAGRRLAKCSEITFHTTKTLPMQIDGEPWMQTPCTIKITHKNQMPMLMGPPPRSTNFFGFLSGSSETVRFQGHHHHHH

[3] = system: naïve human CD8 T cells; assay: Human CD8 T cells IFN-γ assay; format: cell-based; details: normalized to 3 μM reference compound with anti-CD3 plus anti-CD28 as 100% activation, read-out: HuCD8 INFG Normalized EC50;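 also: Naïve human CD8 T cells stimulated with plate-bound anti-CD3 and soluble anti-CD28, IFN-γ in supernatant quantified by AlphaLISA and converted to pg/mL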
[4] = system: Human venous whole blood; assay: Human whole blood IFN-γ assay; format: cell-based; details: human whole blood, normalized to 3 μM reference compound with anti-CD3 plus anti-CD28 as 100% activation, read-out: INFg Whole Blood Normalized Agonist EC50;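 also: blood from healthy donors exposed to compound for 1 h before stimulation with anti-CD3 and anti-CD28 at 1 µg/mL each, IFN-γ quantified in supernatant by AlphaLISA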
Procedure: Human Whole Blood IFN-γ Assay
Human venous whole blood (22.5 μL per well), obtained from healthy donors, was pre-treated with compounds for one hour at 37° C. in a humidified 95% air/5% CO2 incubator. The blood was stimulated with 2.5 μL anti-human CD3 and anti-CD28 mAb at a final concentration of 1 μg/mL each for 24 hours at 37° C. IFN-γ in the supernatants was measured using AlphLISA kit (Cat # AL217).

[5] = molecular target: T2, human DGKζ (Homo sapiens, UniProt Q13574); assay: DGKζ LIPGLO assay (extruded liposome substrate), in vitro DGK inhibition; format: biochemical; details: liposome (LIPGLO) assay; read-out: DGKz LIPGLO IC50
T2 construct: TVMV protease cleavage site (C); Hexa-His (C); made in house; host or cells: Sf9 insect cells (baculovirus, Bac-to-Bac)
T2 sequence (Q13574 with tags, fused parts or gaps isoform Q13574-4): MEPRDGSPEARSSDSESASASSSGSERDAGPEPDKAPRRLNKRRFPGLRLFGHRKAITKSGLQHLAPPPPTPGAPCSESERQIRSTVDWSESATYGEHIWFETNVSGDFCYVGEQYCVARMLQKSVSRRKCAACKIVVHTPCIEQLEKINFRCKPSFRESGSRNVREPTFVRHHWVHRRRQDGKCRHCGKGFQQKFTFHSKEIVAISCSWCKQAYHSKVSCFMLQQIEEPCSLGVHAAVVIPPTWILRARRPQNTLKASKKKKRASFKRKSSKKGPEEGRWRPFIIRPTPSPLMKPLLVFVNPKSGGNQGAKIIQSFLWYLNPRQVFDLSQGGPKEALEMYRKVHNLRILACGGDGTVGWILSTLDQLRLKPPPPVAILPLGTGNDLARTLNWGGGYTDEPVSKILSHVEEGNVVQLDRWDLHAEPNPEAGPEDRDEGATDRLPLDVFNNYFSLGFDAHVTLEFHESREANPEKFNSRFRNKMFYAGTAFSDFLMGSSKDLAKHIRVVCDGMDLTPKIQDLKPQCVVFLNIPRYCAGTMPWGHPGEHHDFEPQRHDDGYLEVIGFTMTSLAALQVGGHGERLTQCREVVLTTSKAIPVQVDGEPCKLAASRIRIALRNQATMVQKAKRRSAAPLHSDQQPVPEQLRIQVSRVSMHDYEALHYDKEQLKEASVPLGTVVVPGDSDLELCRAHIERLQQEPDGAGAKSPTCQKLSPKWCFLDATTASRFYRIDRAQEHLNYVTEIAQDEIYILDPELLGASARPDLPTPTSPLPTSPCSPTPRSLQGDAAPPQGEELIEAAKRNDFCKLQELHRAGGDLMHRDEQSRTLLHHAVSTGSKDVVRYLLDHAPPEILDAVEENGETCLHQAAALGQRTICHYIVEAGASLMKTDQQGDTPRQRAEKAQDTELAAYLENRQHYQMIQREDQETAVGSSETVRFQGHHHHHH

For C[C@@H]1CN(c2c(Cl)c(=O)n(C)c3ccc(C#N)nc23)[C@@H](C)CN1C(c1ccc(Cl)cc1)c1ccc(Cl)cc1 [Example 26, 8-((2S,5R)-4-(bis(4-chlorophenyl)methyl)-2,5-dimethylpiperazin-1-yl)-7-chloro-5-methyl-6-oxo-5,6-dihydro-1,5-naphthyridine-2-carbonitrile], the IC50 ([1]; Mus musculus, MC-38) was 10000 nM, the IC50 [2] was 24000 nM and the EC50 ([3]; Homo sapiens, T-cell, 20 h) was 2300 nM. The EC50 ([4]; Homo sapiens, 24 h) was 20000 nM and the IC50 [5] was 3000 nM.

CC[C@@H]1CN(c2c(C#N)c(=O)n(C)c3ccc(C#N)nc23)CCN1C(c1ccc(F)cc1)c1ccc(F)cc1 [Example 173, (R)-8-(4-(bis(4-fluorophenyl)methyl)-3-ethylpiperazin-1-yl)-5-methyl-6-oxo-5,6-dihydro-1,5-naphthyridine-2,7-dicarbonitrile] showed an IC50 ([1]; Mus musculus, MC-38) of 45 nM, an IC50 [2] of 950 nM and an EC50 ([3]; Homo sapiens, T-cell, 20 h) of 25 nM. It also gave an EC50 ([4]; Homo sapiens, 24 h) of 990 nM and an IC50 [5] of 1400 nM.

Compound Cn1c(=O)cc(N2CCN(C(c3ccc(F)cc3)c3ccc(F)cc3)C(CO)C2)c2nc(C#N)ccc21 (single isomer, unassigned) [Example 1, 8-(4-(bis(4-fluorophenyl)methyl)-3-(hydroxymethyl)piperazin-1-yl)-5-methyl-6-oxo-5,6-dihydro-1,5-naphthyridine-2-carbonitrile] has an IC50 [1] of 230 nM, an IC50 [2] of 3000 nM and an EC50 [3] of 96 nM. The EC50 [4] was 820 nM and the IC50 [5] was 480 nM.

COC(=O)C1CN(c2c(Cl)c(=O)n(C)c3ccc(C#N)nc23)CCN1C(c1ccc(F)cc1)c1ccc(F)cc1 (single isomer, unassigned) [Example 77, methyl 1-(bis(4-fluorophenyl)methyl)-4-(3-chloro-6-cyano-1-methyl-2-oxo-1,2-dihydro-1,5-naphthyridin-4-yl)piperazine-2-carboxylate] showed an IC50 [1] of 3300 nM, an IC50 [2] of 81000 nM and an EC50 [3] of 10000 nM. For the same compound, the EC50 [4] was 1700 nM and the IC50 [5] was 240000 nM.

Work on Cc1cc(C2CN(c3cc(=O)n(C)c4ccc(C#N)nc34)CC(C)N2C(c2ccc(F)cc2)c2ccc(F)cc2)ccn1 (centres unmarked) [Example 84, 8-(4-(bis(4-fluorophenyl)methyl)-3-methyl-5-(2-methylpyridin-4-yl)piperazin-1-yl)-5-methyl-6-oxo-5,6-dihydro-1,5-naphthyridine-2-carbonitrile] yielded an IC50 ([1]; Mus musculus, MC-38) of 10000 nM, an IC50 [2] of 81000 nM and an EC50 ([3]; Homo sapiens, T-cell, 20 h) of 10000 nM. It also gave an EC50 ([4]; Homo sapiens, 24 h) of 20000 nM and an IC50 [5] of 240000 nM.

Compound CC[C@@H]1CN(c2cc(=O)n(C)c3ccc(C#N)nc23)CCN1C(c1ccc(F)cc1)c1ccc(F)cc1 [Example 172, (R)-8-(4-(bis(4-fluorophenyl)methyl)-3-ethylpiperazin-1-yl)-5-methyl-6-oxo-5,6-dihydro-1,5-naphthyridine-2-carbonitrile] has an IC50 ([1]; Mus musculus, MC-38) of 39 nM, an IC50 [2] of 1900 nM and an EC50 ([3]; Homo sapiens, T-cell, 20 h) of 36 nM. The EC50 ([4]; Homo sapiens, 24 h) was 1300 nM and the IC50 [5] was 1400 nM.

For C[C@@H]1CN(C(c2ccc(F)cc2)c2ccc(F)cc2)CCN1c1cc(=O)n(C)c2ccc(C#N)nc12 [Example 135, (R)-8-(4-(bis(4-fluorophenyl)methyl)-2-methylpiperazin-1-yl)-5-methyl-6-oxo-5,6-dihydro-1,5-naphthyridine-2-carbonitrile], the IC50 ([1]; Mus musculus, MC-38) was 3600 nM, the IC50 [2] was 110000 nM and the EC50 ([3]; Homo sapiens, T-cell, 20 h) was 10000 nM. It also gave an EC50 ([4]; Homo sapiens, 24 h) of 61000 nM and an IC50 [5] of 10000 nM.

Work on C[C@H]1CN(c2cc(=O)n(C)c3ccc(C#N)nc23)CCN1C(c1ccc(F)cc1)c1ccc(F)cc1 [Example 35, (S)-8-(4-(bis(4-fluorophenyl)methyl)-3-methylpiperazin-1-yl)-5-methyl-6-oxo-5,6-dihydro-1,5-naphthyridine-2-carbonitrile] yielded an IC50 ([1]; Mus musculus, MC-38) of 1100 nM, an IC50 [2] of 21000 nM and an EC50 ([3]; Homo sapiens, T-cell, 20 h) of 61 nM. The EC50 ([4]; Homo sapiens, 24 h) was 2200 nM and the IC50 [5] was 770 nM.

With COc1cc(F)ccc1C(c1ccc(F)cc1)N1C[C@@H](C)N(c2c([N+](=O)[O-])c(=O)n(C)c3ccc(C#N)nc23)C[C@@H]1C (stereo in doubt) [Example 120, 8-((2R,5S)-4-((4-fluoro-2-methoxyphenyl)(4-fluorophenyl)methyl)-2,5-dimethylpiperazin-1-yl)-5-methyl-7-nitro-6-oxo-5,6-dihydro-1,5-naphthyridine-2-carbonitrile] the IC50 ([1]; Mus musculus, MC-38) was 4700 nM, the IC50 [2] was 110000 nM and the EC50 ([3]; Homo sapiens, T-cell, 20 h) was 1000 nM. It also gave an EC50 ([4]; Homo sapiens, 24 h) of 20000 nM and an IC50 [5] of 240000 nM.

Work on COC(=O)C1CN(c2cc(=O)n(C)c3ccc(C#N)nc23)CCN1C(c1ccc(F)cc1)c1ccc(F)cc1 (single isomer, unassigned) [Example 39, Methyl 1-(bis(4-fluorophenyl)methyl)-4-(6-cyano-1-methyl-2-oxo-1,2-dihydro-1,5-naphthyridin-4-yl)piperazine-2-carboxylate] yielded an IC50 [1] of 1900 nM, an IC50 [2] of 240000 nM and an EC50 [3] of 220 nM. For the same compound, the EC50 [4] was 9700 nM and the IC50 [5] was 9400 nM.

COCC1CN(c2cc(=O)n(C)c3ccc(C#N)nc23)CCN1C(c1ccc(F)cc1)c1ccc(F)cc1 (single isomer, unassigned) [Example 93, 8-(4-(bis(4-fluorophenyl)methyl)-3-(methoxymethyl)piperazin-1-yl)-5-methyl-6-oxo-5,6-dihydro-1,5-naphthyridine-2-carbonitrile] gave an IC50 [1] of 81 nM, an IC50 [2] of 4300 nM and an EC50 [3] of 63 nM. It also gave an EC50 [4] of 1400 nM and an IC50 [5] of 680 nM.

Compound Cn1c(=O)cc(N2CCN(C(c3ccc(F)cc3)c3ccc(F)cc3)C(C#N)C2)c2nc(C#N)ccc21 (single isomer, unassigned) [Example 45, 8-(4-(bis(4-fluorophenyl)methyl)-3-cyanopiperazin-1-yl)-5-methyl-6-oxo-5,6-dihydro-1,5-naphthyridine-2-carbonitrile] has an IC50 [1] of 910 nM, an IC50 [2] of 7200 nM and an EC50 [3] of 530 nM. It also gave an EC50 [4] of 2300 nM and an IC50 [5] of 2400 nM.

Work on CC(C)[C@@H]1CN(c2cc(=O)n(C)c3ccc(C#N)nc23)CCN1C(c1ccc(F)cc1)c1ccc(F)cc1 [Example 168, (R)-8-(4-(bis(4-fluorophenyl)methyl)-3-isopropylpiperazin-1-yl)-5-methyl-6-oxo-5,6-dihydro-1,5-naphthyridine-2-carbonitrile] yielded an IC50 ([1]; Mus musculus, MC-38) of 510 nM, an IC50 [2] of 7500 nM and an EC50 ([3]; Homo sapiens, T-cell, 20 h) of 10000 nM. It also gave an EC50 ([4]; Homo sapiens, 24 h) of 10000 nM and an IC50 [5] of 240000 nM.

With C[C@@H]1CN(c2cc(=O)n(C)c3ccc(C#N)nc23)[C@@H](C)CN1C(c1ccc(F)cc1)c1ccc(C#N)cc1 (single isomer, unassigned) [Example 307] the IC50 [1] was 31 nM, the IC50 [2] was 470 nM and the EC50 [3] was 30 nM. It also gave an EC50 [4] of 330 nM and an IC50 [5] of 1000 nM.

For Cn1c(=O)cc(N2CCN(C(c3ccc(F)cc3)c3ccc(F)cc3)C(C(C)(C)F)C2)c2nc(C#N)ccc21 (single isomer, unassigned) [Example 81, 8-(4-(bis(4-fluorophenyl)methyl)-3-(2-fluoropropan-2-yl)piperazin-1-yl)-5-methyl-6-oxo-5,6-dihydro-1,5-naphthyridine-2-carbonitrile], the IC50 [1] was 580 nM, the IC50 [2] was 25000 nM and the EC50 ([3]; Homo sapiens, T-cell, 20 h) was 1700 nM. For the same compound, the EC50 [4] was 8700 nM and the IC50 [5] was 16000 nM.

Compound COc1cc(F)ccc1C(c1ccc(F)cc1)N1C[C@H](C)N(c2cc(=O)n(C)c3ccc(C#N)nc23)C[C@H]1C (single isomer, unassigned) [Example 119] has an IC50 [1] of 6300 nM, an IC50 [2] of 29000 nM and an EC50 [3] of 610 nM. The EC50 [4] was 5100 nM and the IC50 [5] was 1700 nM.

Reference: patent US10669272B2, “Substituted naphthyridinone compounds useful as T cell activators” (BRISTOL-MYERS SQUIBB COMPANY, priority 2018, dated 2020)
